Consider 13 compounds from patent US11345711B2, “8,9-dihydroimidazo[1,2-a]pyrimido[5,4-e]pyrimidin-5(6H)-ones” (IMPACT THERAPEUTICS (SHANGHAI), INC, priority 2016, dated 2022).

Where two headings read alike, the source gives them in different places.

For orientation: IC50 means the point on the concentration scale where inhibition reaches its midpoint. The term Kd denotes the free concentration of one partner at which half of the binding sites on the other are occupied at equilibrium, for simple one-to-one binding.

Data set [1] relates to LoVo cells. The data set is described as follows: MTT based cell viability assay on LoVo cells. To be noted: Homo sapiens, LoVo, 72 h, 3 d, read-out: IC50, growth inhibition of LoVo cells. In outline: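 Inhibition of LoVo proliferation was derived as IC50 from a sigmoidal dose-response fit of cell survival. Readout was MTT (0.5 mg/mL, 4 h) with absorbance at 552/630/690 nm, after 3-day treatment at 37 °C. Eight-point series from 10 μM to 0.01 μM, DMSO control, 1% DMSO final.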

Data set [2] relates to NCI-H1299 cells. Nature of the data set: MTT based cell viability assay on NCI-H1299 cells. To be noted: Homo sapiens, read-out: IC50, growth inhibition of NCI-H1299 cells. The method in brief: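 NCI-H1299 cells (1000/well, settled overnight) were exposed for 3 d at 37 °C, 5% CO2, to an eight-point series of 10 μM to 0.01 μM plus DMSO blank, as prepared in DMSO (final DMSO 1‰). MTT (0.5 mg/mL, 4 h) was read at 552/630/690 nm. IC50 came from sigmoidal dose-response fits of survival.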

The subject of data set [3] is advanced solid tumors. To be noted: cited from earlier work.
Data set [4] deals with Wee1 (h) (Homo sapiens, UniProt P30291). The data set is described as follows: Wee1 kinase (h) detection method, [γ-33P]-ATP filter assay. The format is biochemical.
Data set [5] has as its target T1, human Wee1 (amino acids M291 to K575) (Homo sapiens, UniProt P30291).
T1 construct: host or cells: E. coli BL21 infected with T7 phage
Nature of the data set: Wee1 dissociation constant (Kd), KINOMEscan KdELECT competitive binding test. The settings on record: 11-point 3-fold dilution. The procedure:
Determination of Wee1 Dissociation Constant (Kd)
The Wee1 dissociation constants (Kd) which measures the affinity of tested compound to Wee 1 have been determined in the KINOMEscan™ KdELECT Service at DiscoveRx. KINOMEscan™ assay is based on competitive binding test. The affinity index Kd for Wee1 is calculated by qPCR measurement of the compounds that compete with the immobilized ligand and bind to the enzyme activity center.
Wee1 kinase-tagged T7 phage strains were prepared in an E. coli BL21 strain. E. coli was grown to log-phase and infected with T7 phage and incubated with shaking at 32° C. until lysis. The lysates were centrifuged and filtered to remove cell debris. A partial length construct of human Wee1 (amino acids M291 to K575 based on reference sequence NP_003381.1) was expressed on the T7 phage coat. A short DNA sequence, embedded within the T7 phage genome, was used as amplicon for detection via qPCR. […]
Test compounds were prepared as 111× stocks in 100% DMSO. Kas were determined using an 11-point 3-fold compound dilution series with three DMSO control points. […] The kinase concentration in the eluates was measured by qPCR. qPCR reactions were assembled by adding 2.5 μL of kinase eluate to 7.5 μL of qPCR master mix containing 0.15 μM amplicon primers and 0.15 μM amplicon probe. […]
The constants (KdS) were calculated with a standard dose-response curve using the Hill equation: […]

[6] abbreviates: AZD1775 alone or in combination with gemcitabine, cisplatin or carboplatin, 176 evaluable patients.

Wee1 (h), sequence (P30291 whole entry, the tested form may be a part): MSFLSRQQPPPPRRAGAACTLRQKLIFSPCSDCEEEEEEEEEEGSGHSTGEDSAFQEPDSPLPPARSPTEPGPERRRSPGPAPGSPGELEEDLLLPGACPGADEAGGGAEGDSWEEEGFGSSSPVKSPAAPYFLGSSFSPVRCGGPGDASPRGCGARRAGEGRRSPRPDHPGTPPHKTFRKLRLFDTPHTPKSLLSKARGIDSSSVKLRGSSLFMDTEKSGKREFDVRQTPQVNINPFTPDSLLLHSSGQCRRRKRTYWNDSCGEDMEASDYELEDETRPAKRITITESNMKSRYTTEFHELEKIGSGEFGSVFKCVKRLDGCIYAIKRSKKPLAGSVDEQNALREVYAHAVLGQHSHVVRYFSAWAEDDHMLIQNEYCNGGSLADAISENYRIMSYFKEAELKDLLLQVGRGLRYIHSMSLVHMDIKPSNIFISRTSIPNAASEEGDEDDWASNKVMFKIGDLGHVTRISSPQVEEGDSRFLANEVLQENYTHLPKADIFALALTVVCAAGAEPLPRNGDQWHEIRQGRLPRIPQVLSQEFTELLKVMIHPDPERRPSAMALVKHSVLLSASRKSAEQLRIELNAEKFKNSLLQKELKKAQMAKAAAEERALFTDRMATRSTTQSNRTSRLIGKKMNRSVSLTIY
T1 sequence (P30291 291-575): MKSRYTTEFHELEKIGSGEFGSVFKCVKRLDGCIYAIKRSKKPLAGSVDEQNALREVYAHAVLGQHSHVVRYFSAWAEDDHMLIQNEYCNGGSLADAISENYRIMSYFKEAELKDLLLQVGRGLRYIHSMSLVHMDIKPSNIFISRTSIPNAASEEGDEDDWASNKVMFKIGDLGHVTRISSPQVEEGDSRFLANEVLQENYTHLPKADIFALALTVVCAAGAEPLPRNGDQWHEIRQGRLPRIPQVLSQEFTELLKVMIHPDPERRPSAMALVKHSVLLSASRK

Take `C=CCn1c(=O)c2cnc(Nc3ccc(N4CCN(C)CC4)cc3)nc2n1-c1cccc(C(C)(C)O)n1` [AZD1775]: the half-maximal inhibitory concentration (IC50) in data set [1] is 389 nM; in data set [2] (NCI-H1299, NCI-H1299 cells), 287 nM. The partial response in data set [3] (setting [6]) was 10%. Also, the “stable disease as the best response” value in data set [3] (setting [6]) is on record as 53%. Also, the response rate in data set [3] (TP53 wild-type patients (n=33)) was 12%; in data set [3] (patients with TP53 mutation (n=19)) it was 21%. Moreover, the safety and tolerability entry in data set [3] (alone or in combination with chemotherapy, at a certain dose) was “safe and tolerable”. Also, the “Inh. (%) of Wee1 kinase enzyme activity” value in data set [4] (C 10 μm compound) was 97%.
For `CN1CCN(c2ccc(Nc3ncc4c(n3)N3CCN=C3N(c3ccccc3Cl)C4=O)cc2)CC1` [Example 1, 6-(2-chlorophenyl)-2-((4-(4-methylpiperazin-1-yl)phenyl)amino)-8,9-dihydroimidazo[1,2-a]pyrimido[5,4-e]pyrimidin-5(6H)-one], the IC50 in data set [1] was 3580 nM; in data set [2] (NCI-H1299 cells), 1590 nM. Besides, the Kd in data set [5] came out at 250 nM. Further, the “Inh. (%) of Wee1 kinase enzyme activity” value in data set [4] (C 10 μm compound) was found to be 96%.
In the case of `Cc1cc(N2C[C@@H](C)N(C)[C@@H](C)C2)ccc1Nc1ncc2c(n1)N1CCN=C1N(c1c(F)cccc1Cl)C2=O` [Example 43, 6-(2-Chloro-6-fluorophenyl)-2-((2-methyl-4-((3S,5R)-3,4,5-trimethylpiperazin-1-yl)phenyl)amino)-8,9-dihydroimidazo[1,2-a]pyrimido[5,4-e]pyrimidin-5(6H)-one], the half-maximal inhibitory concentration (IC50) in data set [1] is greater than 100000 nM; in data set [2] (NCI-H1299 cells) it was greater than 10000 nM. Also, the “Inh. (%) of Wee1 kinase enzyme activity” value in data set [4] (C 1 μm compound) was determined as 27%.
Turning to `Cc1cc(Nc2ncc3c(n2)N2CCN=C2N(c2c(Cl)cccc2Br)C3=O)cc(F)c1N1CCC(N(C)C)CC1` [Example 160, 6-(2-Bromo-6-chlorophenyl)-2-((4-(4-(dimethylamino)piperidin-1-yl)-3-fluoro-5-methylphenyl)amino)-8,9-dihydroimidazo[1,2-a]pyrimido[5,4-e]pyrimidin-5(6H)-one], the IC50 in data set [1] is 27.3 nM; in data set [2] (NCI-H1299, NCI-H1299 cells), 62.8 nM. The “Inh. (%) of Wee1 kinase enzyme activity” value in data set [4] (C 0.01 μm compound) is 31%; in data set [4] (C 0.1 μm compound) it was 85%; in data set [4] (C 1 μm compound), 98%.
Regarding `CC(C)N1CCN(c2ccc(Nc3ncc4c(n3)N3CCN=C3N(c3c(F)cccc3Cl)C4=O)cc2)CC1` [Example 6, 6-(2-Chloro-6-fluorophenyl)-2-((4-(4-isopropylpiperazin-1-yl)phenyl)amino)-8,9-dihydroimidazo[1,2-a]pyrimido[5,4-e]pyrimidin-5(6H)-one], the 50% inhibitory concentration (IC50) in data set [1] is 339 nM; in data set [2] (NCI-H1299 cells) it was 461 nM. In addition, the figures for the “Inh. (%) of Wee1 kinase enzyme activity” value in data set [4] (C 0.01 μm compound), in data set [4] (C 0.1 μm compound) and in data set [4] (C 1 μm compound) were 33%, 89% and 98%, respectively.
For `Cc1cc(Nc2ncc3c(n2)N2CCN=C2N(c2c(F)cccc2F)C3=O)ccc1N1CCN(C)CC1` [Example 60, 6-(2,6-Difluorophenyl)-2-((3-methyl-4-(4-methylpiperazin-1-yl)phenyl)amino)-8,9-dihydroimidazo[1,2-a]pyrimido[5,4-e]pyrimidin-5(6H)-one], the 50% inhibitory concentration (IC50) in data set [1] came to 158 nM; in data set [2] (NCI-H1299 cells) it was 992 nM. The “Inh. (%) of Wee1 kinase enzyme activity” value is 15% in data set [4] (C 0.01 μm compound), 71% in data set [4] (C 0.1 μm compound) and 91% in data set [4] (C 1 μm compound).
With `O=C1c2cnc(Nc3ccc(N4CCNCC4)c(CO)c3)nc2N2CCN=C2N1c1c(F)cccc1Cl` [Example 179, 6-(2-Chloro-6-fluorophenyl)-2-((3-(hydroxymethyl)-4-(piperazin-1-yl)phenyl)amino)-8,9-dihydroimidazo[1,2-a]pyrimido[5,4-e]pyrimidin-5(6H)-one], the IC50 in data set [1] came out at 2860 nM; in data set [2] (NCI-H1299 cells), 70600 nM. Also, the “Inh. (%) of Wee1 kinase enzyme activity” value in data set [4] (C 1 μm compound) worked out at 95%.
On to `COc1cc(Nc2ncc3c(n2)N2CCN=C2N(c2c(Cl)cccc2Cl)C3=O)cc(Cl)c1N1CCC(N(C)C)CC1` [Example 144, 6-(2,6-Dichlorophenyl)-2-((3-chloro-4-(4-(dimethylamino)piperidin-1-yl)-5-methoxyphenyl)amino)-8,9-dihydroimidazo[1,2-a]pyrimido[5,4-e]pyrimidin-5(6H)-one], for which the half-inhibitory concentration (IC50) worked out at 61.5 nM in data set [1] and 140 nM in data set [2] (NCI-H1299, NCI-H1299 cells). Further, the “Inh. (%) of Wee1 kinase enzyme activity” value stood at 19% in data set [4] (C 0.01 μm compound), 76% in data set [4] (C 0.1 μm compound) and 97% in data set [4] (C 1 μm compound).
Take `O=C1c2cnc(Nc3ccc(CN4CCOCC4)cc3)nc2N2CCN=C2N1c1c(F)cccc1Cl` [Example 33, 6-(2-Chloro-6-fluorophenyl)-2-((4-(morpholinomethyl)phenyl)amino)-8,9-dihydroimidazo[1,2-a]pyrimido[5,4-e]pyrimidin-5(6H)-one]: the 50% inhibitory concentration (IC50) was greater than 100000 nM in data set [1] and greater than 10000 nM in data set [2] (NCI-H1299 cells). For the same compound, the “Inh. (%) of Wee1 kinase enzyme activity” value in data set [4] (C 1 μm compound) was found to be 87%.
With `COc1cccc(Cl)c1N1C(=O)c2cnc(Nc3ccc(N4CCN(C)CC4)c(C)c3)nc2N2CCN=C21` [Example 82, 6-(2-Chloro-6-methoxyphenyl)-2-((3-methyl-4-(4-methylpiperazin-1-yl)phenyl)amino)-8,9-dihydroimidazo[1,2-a]pyrimido[5,4-e]pyrimidin-5(6H)-one], the IC50 in data set [1] was 946 nM; in data set [2] (NCI-H1299 cells), 1200 nM. For the same compound, the “Inh. (%) of Wee1 kinase enzyme activity” value in data set [4] (C 1 μm compound) is recorded as 83%.
In the same order, the values of `Cc1cc(Nc2ncc3c(n2)N2CCN=C2N(c2c(F)cccc2C(F)(F)F)C3=O)ccc1N1CCN(C)CC1` [Example 61, 6-(2-Fluoro-6-(trifluoromethyl)phenyl)-2-((3-methyl-4-(4-methylpiperazin-1-yl)phenyl)amino)-8,9-dihydroimidazo[1,2-a]pyrimido[5,4-e]pyrimidin-5(6H)-one] are 757 nM, 1230 nM and 82%.
Regarding `Cc1cc(Nc2ncc3c(n2)N2CCN=C2N(c2c(Cl)cccc2Br)C3=O)cc(Cl)c1N1CCN(C)CC1` [Example 166, 6-(2-Bromo-6-chlorophenyl)-2-((3-chloro-5-methyl-4-(4-methylpiperazin-1-yl)phenyl)amino)-8,9-dihydroimidazo[1,2-a]pyrimido[5,4-e]pyrimidin-5(6H)-one], the IC50 is 55.5 nM in data set [1] and 99.3 nM in data set [2] (NCI-H1299, NCI-H1299 cells). Moreover, the “Inh. (%) of Wee1 kinase enzyme activity” value in data set [4] (C 0.01 μm compound) stood at 28%; in data set [4] (C 0.1 μm compound) it was 86%; in data set [4] (C 1 μm compound) it was 98%.
As to `CN(C)CCCOc1ccc(Nc2ncc3c(n2)N2CCN=C2N(c2c(F)cccc2Cl)C3=O)cc1` [Example 106, 6-(2-Chloro-6-fluorophenyl)-2-((4-(3-(dimethylamino)propoxy)phenyl)amino)-8,9-dihydroimidazo[1,2-a]pyrimido[5,4-e]pyrimidin-5(6H)-one], the IC50 in data set [1] is 330 nM; in data set [2] (NCI-H1299 cells) it was 835 nM. Further, the “Inh. (%) of Wee1 kinase enzyme activity” value was found to be 38% in data set [4] (C 0.01 μm compound), 83% in data set [4] (C 0.1 μm compound) and 94% in data set [4] (C 1 μm compound).
